In publication PMC9898036, “VIP152 is a selective CDK9 inhibitor with pre-clinical in vitro and in vivo efficacy in chronic lymphocytic leukemia” (Leukemia, 2022):
Substitutions are numbered along the chain they refer to. Read-outs that look alike come from different tables or passages of the source.

How the values were obtained:
ABL1 [1] = target: T1, ABL1 (Homo sapiens, UniProt P00519, H396P); assay: KINOMEscan: ABL1; type: binding; settings: read-out: Percent Control; for remaining binding at 0.1 µM: 100 nM; for remaining binding at 1 µM: 1000 nM
T1 sequence (P00519 229-512 H396P): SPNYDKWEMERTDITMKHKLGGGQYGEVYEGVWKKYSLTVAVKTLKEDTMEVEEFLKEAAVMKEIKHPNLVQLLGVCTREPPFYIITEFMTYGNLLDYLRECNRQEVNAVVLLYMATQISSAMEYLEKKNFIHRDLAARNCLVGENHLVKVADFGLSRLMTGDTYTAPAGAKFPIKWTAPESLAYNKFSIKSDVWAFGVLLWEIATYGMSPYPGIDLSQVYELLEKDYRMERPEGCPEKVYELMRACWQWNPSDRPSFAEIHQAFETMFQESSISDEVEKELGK
Protocol: (§1) The structure and synthesis of VIP152 were recently described by Lücking et al.. (Fig. 1A); however, the selectivity of the molecule in cellular systems has yet to be explored. […] We also performed this experiment at 1000 nM, where CDK9 was inhibited at 99%. […] We found a strong concordance between our data and those of Lücking when comparing the most inhibited kinases. Potential off-target effects of VIP152 were next tested in vitro at a concentration of 10 µM for off-target activity against a broad range of receptors, transporters, ion channels, and enzymes (n = 138) using the Eurofins Diversity Panel.
(§2) Kinomescan Kinase Profiling Assay
(§3) Kinomescan Assay was performed at DiscoverRX and described in Fabian, et al. 2005, Nat.
(§4) Biotechnol. In brief, kinases were produced and subsequently tagged with DNA for qPCR detection.
(§5) Streptavidin-coated magnetic beads were bound to biotinylated kinase ligands to serve as a solid support.
(§6) VIP152 was dissolved in DMSO and tested across a 10 serial threefold dilution set and compared to a test compound and a DMSO control. Kinases which were inhibited by VIP152 would not be bound to the solid-support resulting in decreased substrate for the qPCR reaction. Kinome map was produced via TreeSpot Analysis from DiscoverRX. […]

ABL1 [2] = target: T2, ABL1 (Homo sapiens, UniProt P00519, Q252H); assay: KINOMEscan: ABL1; type: binding; settings: read-out: Percent Control; for remaining binding at 0.1 µM: 100 nM; for remaining binding at 1 µM: 1000 nM
T2 sequence (P00519 229-512 Q252H): T1 sequence (P00519 229-512 H396P) with Q24H, P168H
Protocol: as §1, §2, §3, §4, §5, §6

[3] = target: CDK9 in complex with Cyclin T1 (Homo sapiens, UniProt P50750); assay: NanoBRET target engagement assay (HEK293); type: cell-based
Glutamate, Kainate = assay: Eurofins Diversity Panel; type: binding; settings: rat, Conc. 10 μM
[4] = target: RPS6KA5(Kin.Dom.2-C-terminal) (Homo sapiens, UniProt O75582); assay: KINOMEscan: RPS6KA5(Kin.Dom.2-C-terminal); type: binding; settings: 100 nM, read-out: Percent Control
[5] = target: RSK4(Kin.Dom.1-N-terminal) (Homo sapiens, UniProt Q9UK32); assay: KINOMEscan: RSK4(Kin.Dom.1-N-terminal); type: binding; settings: 100 nM, read-out: Percent Control
TLK1 = TLK1 (Homo sapiens, UniProt Q9UKI8); assay: KINOMEscan: TLK1; type: binding; settings: 100 nM, read-out: Percent Control
TLK1, sequence (Q9UKI8 whole entry): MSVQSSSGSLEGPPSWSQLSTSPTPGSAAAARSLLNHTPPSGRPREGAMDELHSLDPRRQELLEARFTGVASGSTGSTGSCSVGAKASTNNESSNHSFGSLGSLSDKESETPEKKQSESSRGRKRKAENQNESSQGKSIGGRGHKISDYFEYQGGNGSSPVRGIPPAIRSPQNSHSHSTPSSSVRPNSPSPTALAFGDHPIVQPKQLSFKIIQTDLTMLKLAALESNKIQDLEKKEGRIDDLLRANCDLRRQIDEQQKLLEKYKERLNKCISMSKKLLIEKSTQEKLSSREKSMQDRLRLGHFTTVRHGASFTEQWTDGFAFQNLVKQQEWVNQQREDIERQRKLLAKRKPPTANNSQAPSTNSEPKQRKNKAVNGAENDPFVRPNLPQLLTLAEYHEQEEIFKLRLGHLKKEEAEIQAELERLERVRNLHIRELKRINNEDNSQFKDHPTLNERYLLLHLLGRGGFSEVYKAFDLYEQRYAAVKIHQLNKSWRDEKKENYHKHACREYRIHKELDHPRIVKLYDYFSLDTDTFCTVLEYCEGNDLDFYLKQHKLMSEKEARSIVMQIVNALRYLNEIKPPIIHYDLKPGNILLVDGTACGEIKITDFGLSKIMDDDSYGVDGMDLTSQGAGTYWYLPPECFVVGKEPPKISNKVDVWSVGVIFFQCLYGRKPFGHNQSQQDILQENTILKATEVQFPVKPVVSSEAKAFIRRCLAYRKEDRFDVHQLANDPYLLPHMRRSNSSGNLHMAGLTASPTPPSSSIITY

BMX = BMX (Homo sapiens, UniProt P51813); assay: KINOMEscan: BMX; type: binding; settings: 1000 nM, read-out: Percent Control
BRAF = BRAF (Homo sapiens, UniProt P15056); assay: KINOMEscan: BRAF; type: binding; settings: 1000 nM, read-out: Percent Control
CAMKK2 = CAMKK2 (Homo sapiens, UniProt Q96RR4); assay: KINOMEscan: CAMKK2; type: binding; settings: 1000 nM, read-out: Percent Control
CAMKK2, sequence (Q96RR4 whole entry): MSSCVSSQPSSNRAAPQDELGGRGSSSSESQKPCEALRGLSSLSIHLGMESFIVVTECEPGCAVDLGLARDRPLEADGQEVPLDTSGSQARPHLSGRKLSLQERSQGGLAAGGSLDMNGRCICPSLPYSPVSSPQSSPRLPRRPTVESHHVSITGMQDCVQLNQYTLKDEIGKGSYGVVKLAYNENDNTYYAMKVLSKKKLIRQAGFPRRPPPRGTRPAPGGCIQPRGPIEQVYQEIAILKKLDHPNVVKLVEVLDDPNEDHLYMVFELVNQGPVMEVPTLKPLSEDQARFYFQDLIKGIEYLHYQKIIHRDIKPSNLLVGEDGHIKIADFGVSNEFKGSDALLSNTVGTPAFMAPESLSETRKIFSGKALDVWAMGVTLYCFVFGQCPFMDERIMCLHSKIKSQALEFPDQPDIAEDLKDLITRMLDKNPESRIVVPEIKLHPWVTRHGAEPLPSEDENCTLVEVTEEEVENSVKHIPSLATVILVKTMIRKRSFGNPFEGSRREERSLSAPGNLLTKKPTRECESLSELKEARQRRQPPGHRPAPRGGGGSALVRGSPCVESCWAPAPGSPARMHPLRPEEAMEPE

CDK4-cyclinD1 = CDK4-cyclinD1 (Homo sapiens, UniProt P11802); assay: KINOMEscan: CDK4-cyclinD1; type: binding; settings: 1000 nM, read-out: Percent Control
CDKL3 = CDKL3 (Homo sapiens, UniProt Q8IVW4); assay: KINOMEscan: CDKL3; type: binding; settings: 1000 nM, read-out: Percent Control
CLK3 = CLK3 (Homo sapiens, UniProt P49761); assay: KINOMEscan: CLK3; type: binding; settings: 1000 nM, read-out: Percent Control
CLK4 = CLK4 (Homo sapiens, UniProt Q9HAZ1); assay: KINOMEscan: CLK4; type: binding; settings: 1000 nM, read-out: Percent Control
EPHA6 = EPHA6 (Homo sapiens, UniProt Q9UF33); assay: KINOMEscan: EPHA6; type: binding; settings: 1000 nM, read-out: Percent Control
EPHA6, sequence (Q9UF33 23-1036): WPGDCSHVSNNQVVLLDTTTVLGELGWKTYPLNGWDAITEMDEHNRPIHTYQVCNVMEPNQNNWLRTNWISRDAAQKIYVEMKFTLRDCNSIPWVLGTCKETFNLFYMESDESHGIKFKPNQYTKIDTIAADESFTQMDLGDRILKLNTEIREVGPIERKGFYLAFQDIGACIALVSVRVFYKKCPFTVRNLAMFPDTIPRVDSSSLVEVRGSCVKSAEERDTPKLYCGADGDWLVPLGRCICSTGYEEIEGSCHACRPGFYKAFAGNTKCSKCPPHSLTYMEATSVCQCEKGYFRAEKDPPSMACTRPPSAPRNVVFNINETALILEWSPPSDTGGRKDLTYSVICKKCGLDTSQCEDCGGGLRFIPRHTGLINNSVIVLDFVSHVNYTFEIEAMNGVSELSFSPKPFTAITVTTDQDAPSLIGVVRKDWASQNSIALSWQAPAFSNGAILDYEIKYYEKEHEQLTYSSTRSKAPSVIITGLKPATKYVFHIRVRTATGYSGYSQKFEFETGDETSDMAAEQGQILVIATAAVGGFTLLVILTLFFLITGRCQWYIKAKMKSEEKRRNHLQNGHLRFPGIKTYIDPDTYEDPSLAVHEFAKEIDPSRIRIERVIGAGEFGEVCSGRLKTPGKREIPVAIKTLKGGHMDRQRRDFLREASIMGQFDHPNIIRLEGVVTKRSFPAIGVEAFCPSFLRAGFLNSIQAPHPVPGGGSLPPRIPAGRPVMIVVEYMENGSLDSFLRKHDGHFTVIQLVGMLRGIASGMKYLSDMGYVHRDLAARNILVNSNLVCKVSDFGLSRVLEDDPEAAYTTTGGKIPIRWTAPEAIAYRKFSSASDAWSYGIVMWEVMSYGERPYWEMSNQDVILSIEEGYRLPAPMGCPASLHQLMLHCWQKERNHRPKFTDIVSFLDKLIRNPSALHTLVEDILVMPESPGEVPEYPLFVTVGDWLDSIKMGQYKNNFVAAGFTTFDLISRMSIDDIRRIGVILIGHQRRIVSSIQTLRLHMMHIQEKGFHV

ERK3 = ERK3 (Homo sapiens, UniProt Q16659); assay: KINOMEscan: ERK3; type: binding; settings: 1000 nM, read-out: Percent Control
ERK3, sequence (Q16659 whole entry): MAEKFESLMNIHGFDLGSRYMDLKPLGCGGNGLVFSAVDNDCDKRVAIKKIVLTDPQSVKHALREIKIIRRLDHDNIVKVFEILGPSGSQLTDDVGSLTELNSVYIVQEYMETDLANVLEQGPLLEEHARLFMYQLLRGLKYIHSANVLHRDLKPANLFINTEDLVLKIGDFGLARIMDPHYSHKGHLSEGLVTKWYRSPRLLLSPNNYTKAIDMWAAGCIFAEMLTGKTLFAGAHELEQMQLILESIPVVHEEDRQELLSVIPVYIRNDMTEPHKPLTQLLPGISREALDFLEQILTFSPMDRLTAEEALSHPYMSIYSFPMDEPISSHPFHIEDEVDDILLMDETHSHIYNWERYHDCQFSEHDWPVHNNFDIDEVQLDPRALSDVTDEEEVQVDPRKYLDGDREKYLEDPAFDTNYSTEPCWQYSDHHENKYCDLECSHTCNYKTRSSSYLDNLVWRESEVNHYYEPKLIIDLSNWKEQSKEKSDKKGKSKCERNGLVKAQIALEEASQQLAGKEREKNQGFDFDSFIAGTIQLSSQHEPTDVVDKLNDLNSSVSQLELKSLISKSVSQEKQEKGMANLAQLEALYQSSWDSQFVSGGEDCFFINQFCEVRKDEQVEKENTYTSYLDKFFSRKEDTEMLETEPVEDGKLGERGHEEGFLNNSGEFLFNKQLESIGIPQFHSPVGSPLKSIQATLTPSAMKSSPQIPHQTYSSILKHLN

FAK = FAK (Homo sapiens, UniProt Q05397); assay: KINOMEscan: FAK; type: binding; settings: 1000 nM, read-out: Percent Control
FAK, sequence (Q05397 whole entry): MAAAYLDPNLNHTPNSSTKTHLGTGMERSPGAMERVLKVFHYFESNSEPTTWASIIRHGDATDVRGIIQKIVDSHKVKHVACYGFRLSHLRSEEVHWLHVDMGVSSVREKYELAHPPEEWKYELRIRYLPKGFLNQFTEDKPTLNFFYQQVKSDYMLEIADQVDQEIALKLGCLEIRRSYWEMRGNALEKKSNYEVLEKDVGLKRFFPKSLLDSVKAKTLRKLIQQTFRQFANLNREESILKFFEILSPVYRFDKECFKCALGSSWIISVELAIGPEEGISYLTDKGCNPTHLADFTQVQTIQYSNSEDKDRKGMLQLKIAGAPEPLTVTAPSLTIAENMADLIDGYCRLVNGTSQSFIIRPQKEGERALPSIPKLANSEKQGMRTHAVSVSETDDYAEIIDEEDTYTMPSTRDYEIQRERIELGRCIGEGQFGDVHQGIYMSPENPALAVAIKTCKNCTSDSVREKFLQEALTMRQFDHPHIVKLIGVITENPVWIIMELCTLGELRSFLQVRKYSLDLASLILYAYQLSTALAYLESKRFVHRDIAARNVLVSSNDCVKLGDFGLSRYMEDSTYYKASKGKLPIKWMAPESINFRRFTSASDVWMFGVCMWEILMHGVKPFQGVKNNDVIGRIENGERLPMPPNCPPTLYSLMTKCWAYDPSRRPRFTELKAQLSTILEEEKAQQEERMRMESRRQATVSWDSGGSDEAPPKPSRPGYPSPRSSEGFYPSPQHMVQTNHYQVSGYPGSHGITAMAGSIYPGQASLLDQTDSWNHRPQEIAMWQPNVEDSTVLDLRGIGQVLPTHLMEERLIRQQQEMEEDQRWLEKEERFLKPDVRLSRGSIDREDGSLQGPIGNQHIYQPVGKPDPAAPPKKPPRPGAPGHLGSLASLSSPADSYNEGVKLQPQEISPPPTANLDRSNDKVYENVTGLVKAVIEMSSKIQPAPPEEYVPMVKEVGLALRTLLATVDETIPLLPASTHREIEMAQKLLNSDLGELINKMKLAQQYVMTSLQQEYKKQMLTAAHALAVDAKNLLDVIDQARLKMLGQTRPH

FLT3(R834Q) = FLT3(R834Q) (Homo sapiens, UniProt P36888, R834Q); assay: KINOMEscan: FLT3(R834Q); type: binding; settings: 1000 nM, read-out: Percent Control
GRK1 = GRK1 (Homo sapiens, UniProt Q15835); assay: KINOMEscan: GRK1; type: binding; settings: 1000 nM, read-out: Percent Control
GRK1, sequence (Q15835 whole entry): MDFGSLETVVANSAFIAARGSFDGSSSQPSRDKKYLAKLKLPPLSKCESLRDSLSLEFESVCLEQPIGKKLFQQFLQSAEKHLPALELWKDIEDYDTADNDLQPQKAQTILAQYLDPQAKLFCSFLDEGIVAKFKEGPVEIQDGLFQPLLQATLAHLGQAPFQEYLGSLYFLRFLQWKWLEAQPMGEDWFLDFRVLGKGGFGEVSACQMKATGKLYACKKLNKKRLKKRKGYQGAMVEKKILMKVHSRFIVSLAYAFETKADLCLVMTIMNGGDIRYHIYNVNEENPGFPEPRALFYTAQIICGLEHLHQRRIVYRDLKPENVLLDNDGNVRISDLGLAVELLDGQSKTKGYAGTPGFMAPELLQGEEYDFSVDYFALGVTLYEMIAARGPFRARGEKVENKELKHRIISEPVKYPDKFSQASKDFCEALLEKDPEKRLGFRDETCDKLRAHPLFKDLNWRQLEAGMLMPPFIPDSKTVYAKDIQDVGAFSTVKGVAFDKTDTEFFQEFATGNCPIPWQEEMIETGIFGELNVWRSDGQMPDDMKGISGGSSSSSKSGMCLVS

GSK3B = GSK3B (Homo sapiens, UniProt P49841); assay: KINOMEscan: GSK3B; type: binding; settings: 1000 nM, read-out: Percent Control
HIPK1 = HIPK1 (Homo sapiens, UniProt Q86Z02); assay: KINOMEscan: HIPK1; type: binding; settings: 1000 nM, read-out: Percent Control
INSR = INSR (Homo sapiens, UniProt P06213); assay: KINOMEscan: INSR; type: binding; settings: 1000 nM, read-out: Percent Control

## COc1cc(F)ccc1-c1cc(Nc2cc(CS(C)(=N)=O)ccn2)ncc1F (stereo not shown) [VIP152]
ABL1 [1]; ABL1(H396P)-nonphosphorylated
  remaining binding at 0.1 µM: 70%
  remaining binding at 1 µM: 7.6%
ABL1 [1]; ABL1(H396P)-phosphorylated
  remaining binding at 0.1 µM: 100%
  remaining binding at 1 µM: 52%
ABL1 [2]; ABL1(Q252H)-nonphosphorylated
  remaining binding at 0.1 µM: 72%
  remaining binding at 1 µM: 25%
ABL1 [2]; ABL1(Q252H)-phosphorylated
  remaining binding at 0.1 µM: 100%
  remaining binding at 1 µM: 46%
[3]
  potency versus the other inhibitors: higher potency
Glutamate, Kainate
  % Inh.: 13%
[4]
  remaining binding at 0.1 µM: 100%
[5]
  remaining binding at 0.1 µM: 100%
TLK1
  remaining binding at 0.1 µM: 98%
BMX
  remaining binding at 1 µM: 3.8%
BRAF
  remaining binding at 1 µM: 55%
CAMKK2
  remaining binding at 1 µM: 16%
CDK4-cyclinD1
  remaining binding at 1 µM: 7.8%
CDKL3
  remaining binding at 1 µM: 53%
CLK3
  remaining binding at 1 µM: 85%
CLK4
  remaining binding at 1 µM: 88%
EPHA6
  remaining binding at 1 µM: 90%
ERK3
  remaining binding at 1 µM: 84%
FAK
  remaining binding at 1 µM: 83%
FLT3(R834Q)
  remaining binding at 1 µM: 78%
GRK1
  remaining binding at 1 µM: 88%
GSK3B
  remaining binding at 1 µM: 11%
HIPK1
  remaining binding at 1 µM: 54%
INSR
  remaining binding at 1 µM: 97%
